Measurements taken from the supplement of paper PMC10307832.

Legend:
Test in all cases: relative viability (nuclei count vs DMSO), 5 days (fraction); higher = more cells survive
[1] = compound: O=C(O)c1ccc2c(c1)nc(Nc1cccc(Cl)c1)c1ccncc12 [Silmitasertib] + CS(=O)(=O)CCNCc1ccc(-c2ccc3ncnc(Nc4ccc(OCc5cccc(F)c5)c(Cl)c4)c3c2)o1 [Lapatinib] (partner 2 µM)
In short: (§1)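 Each reported value is a median over duplicate plates. It expresses relative viability: treated-well nuclei count divided by vehicle-well nuclei count. Lung cancer cell lines in 1536-well plates were dosed by pin tool a day after seeding, alone with one drug or with a fixed anchor-drug dose plus five library-drug doses (not always all listed) in √10 steps, and nuclei were counted after 5 days.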

[2] = compound: O=C(O)c1ccc2c(c1)nc(Nc1cccc(Cl)c1)c1ccncc12 [Silmitasertib] + Cc1nc(NC(=O)N2CCC[C@H]2C(N)=O)sc1-c1ccnc(C(C)(C)C(F)(F)F)c1 [Alpelisib] (partner 2 µM)
In short: as §1

[3] = compound: O=C(O)c1ccc2c(c1)nc(Nc1cccc(Cl)c1)c1ccncc12 [Silmitasertib] + CC1(C)CCC(c2ccc(Cl)cc2)=C(CN2CCN(c3ccc(C(=O)NS(=O)(=O)c4ccc(N[C@H](CCN5CCOCC5)CSc5ccccc5)c(S(=O)(=O)C(F)(F)F)c4)cc3)CC2)C1 [Navitoclax] (partner 0.5 µM)
In short: as §1

[4] = compound: O=C(O)c1ccc2c(c1)nc(Nc1cccc(Cl)c1)c1ccncc12 [Silmitasertib] + CC(C)C[C@H](NC(=O)[C@H](Cc1ccccc1)NC(=O)c1cnccn1)B(O)O [Bortezomib] (partner 0.002 µM)
In short: as §1

[5] = compound: O=C(O)c1ccc2c(c1)nc(Nc1cccc(Cl)c1)c1ccncc12 [Silmitasertib] + C[C@]1(O)C[C@@H](c2nc(-c3ccc4ccc(-c5ccccc5)nc4c3)c3c(N)nccn32)C1 [Linsitinib] (partner 1 µM)
In short: as §1

[6] = compound: O=C(O)c1ccc2c(c1)nc(Nc1cccc(Cl)c1)c1ccncc12 [Silmitasertib] + C[C@@H](Oc1cc(-c2cnn(C3CCNCC3)c2)cnc1N)c1c(Cl)ccc(F)c1Cl [Crizotinib] (partner 1 µM)
In short: as §1

[7] = compound: O=C(O)c1ccc2c(c1)nc(Nc1cccc(Cl)c1)c1ccncc12 [Silmitasertib] + CS(=O)(=O)N1CCN(Cc2cc3nc(-c4cccc5[nH]ncc45)nc(N4CCOCC4)c3s2)CC1 [Pictilisib] (partner 1 µM)
In short: as §1

[8] = compound: O=C(O)c1ccc2c(c1)nc(Nc1cccc(Cl)c1)c1ccncc12 [Silmitasertib] + COc1cc2c(Oc3ccc(NC(=O)C4(C(=O)Nc5ccc(F)cc5)CC4)cc3F)ccnc2cc1OCCCN1CCOCC1 [Foretinib] (partner 0.25 µM)
In short: as §1

Silmitasertib + Olaparib = compound: O=C(O)c1ccc2c(c1)nc(Nc1cccc(Cl)c1)c1ccncc12 [Silmitasertib] + O=C(c1cc(Cc2n[nH]c(=O)c3ccccc23)ccc1F)N1CCN(C(=O)C2CC2)CC1 [Olaparib] (partner 8 µM)
In short: as §1

Silmitasertib = compound: O=C(O)c1ccc2c(c1)nc(Nc1cccc(Cl)c1)c1ccncc12 [Silmitasertib]
In short: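 Vehicle-anchored 1536-well plates of lung cancer cell lines, held overnight at 37 °C, were pinned with five library-drug doses (not always all listed) spaced by √10. No medium change followed over the next 5 days, after which the cells were fixed, permeabilised and Hoechst-stained together and imaged at 4×. Nuclei were counted with MetaXpress, and viability is treated-well nuclei over vehicle-well nuclei, taken as a median across plates. Plates passed with control CV below 25% and at least one doubling.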

Row | Cell Line | relative viability ([1]; first compound 0.04 µM) | relative viability ([1]; first compound 0.4 µM) | relative viability ([1]; first compound 1.265 µM) | relative viability ([1]; first compound 4 µM) | relative viability ([2]; first compound 0.04 µM) | relative viability ([2]; first compound 0.4 µM) | relative viability ([2]; first compound 1.265 µM) | relative viability ([2]; first compound 4 µM) | relative viability ([3]; first compound 0.04 µM) | relative viability ([3]; first compound 0.4 µM) | relative viability ([3]; first compound 1.265 µM) | relative viability ([3]; first compound 4 µM) | relative viability ([4]; first compound 0.04 µM) | relative viability ([4]; first compound 0.4 µM) | relative viability ([4]; first compound 1.265 µM) | relative viability ([4]; first compound 4 µM) | relative viability ([5]; first compound 0.04 µM) | relative viability ([5]; first compound 0.4 µM) | relative viability ([5]; first compound 1.265 µM) | relative viability ([5]; first compound 4 µM) | relative viability ([6]; first compound 0.04 µM) | relative viability ([6]; first compound 0.4 µM) | relative viability ([6]; first compound 1.265 µM) | relative viability ([6]; first compound 4 µM) | relative viability ([7]; first compound 0.04 µM) | relative viability ([7]; first compound 0.4 µM) | relative viability ([7]; first compound 1.265 µM) | relative viability ([7]; first compound 4 µM) | relative viability ([8]; first compound 0.04 µM) | relative viability ([8]; first compound 0.4 µM) | relative viability ([8]; first compound 1.265 µM) | relative viability ([8]; first compound 4 µM) | relative viability (Silmitasertib + Olaparib; first compound 0.04 µM) | relative viability (Silmitasertib + Olaparib; first compound 0.4 µM) | relative viability (Silmitasertib + Olaparib; first compound 1.265 µM) | relative viability (Silmitasertib + Olaparib; first compound 4 µM) | relative viability (Silmitasertib; 0.04 µM) | relative viability (Silmitasertib; 0.4 µM) | relative viability (Silmitasertib; 1.265 µM) | relative viability (Silmitasertib; 4 µM)
1 | Calu-6 | 1.13 | 0.945 | 0.761 | 0.51 | 0.984 | 0.938 | 0.755 | 0.571 | 1 | 0.783 | 0.661 | 0.374 | 1.13 | 0.868 | 0.824 | 0.602 | 1.04 | 0.862 | 0.878 | 0.49 | 0.915 | 0.721 | 0.727 | 0.527 | 0.99 | 0.934 | 0.628 | 0.359 | 0.963 | 0.83 | 0.846 | 0.616 | 0.654 | 0.28 | 0.445 | 0.39 | 1.14 | 0.898 | 0.885 | 0.663
2 | EBC-1 | 0.225 | 0.185 | 0.2 | 0.192 | 0.925 | 0.601 | 0.262 | 0.211 | 0.542 | 0.154 | 0.134 | 0.168 | 0.652 | 0.39 | 0.347 | 0.239 | 0.982 | 0.655 | 0.471 | 0.222 | 0.189 | 0.16 | 0.171 | 0.157 | 0.534 | 0.375 | 0.178 | 0.139 | 0.0961 | 0.0977 | 0.0913 | 0.0847 | 0.796 | 0.371 | 0.423 | 0.212 | 1.09 | 0.693 | 0.591 | 0.29
